Results as given in the NIST ThermoML archive (doi:10.1016/j.jct.2008.02.019).
± gives the expanded uncertainty stated by the source.

How the values were obtained:
[1] = excess molar enthalpy (molar enthalpy of mixing); xn = mol fraction of the nth substance listed; conditions: 101 kPa, Liquid, Flow calorimetry
[2] = xn = mol fraction of the nth substance listed; conditions: 101 kPa, Liquid

CCCC[n+]1ccc(C)cc1.F[B-](F)(F)F [1-butyl-4-methylpyridinium tetrafluoroborate] + CCO
Conditions | excess molar enthalpy [kcal/mol] | mass density [kg/m3]
[1], 298.15 K, x1 = 0.0209 | 0.0715 ± 0.00191 | –
[1], 298.15 K, x1 = 0.0461 | 0.149 ± 0.00335 | –
[1], 298.15 K, x1 = 0.0751 | 0.224 ± 0.00478 | –
[1], 298.15 K, x1 = 0.1068 | 0.285 ± 0.00621 | –
[1], 298.15 K, x1 = 0.1406 | 0.358 ± 0.00765 | –
[1], 298.15 K, x1 = 0.1751 | 0.419 ± 0.00908 | –
[1], 298.15 K, x1 = 0.2104 | 0.481 ± 0.0103 | –
[1], 298.15 K, x1 = 0.246 | 0.527 ± 0.0112 | –
[1], 298.15 K, x1 = 0.2661 | 0.554 ± 0.0117 | –
[1], 298.15 K, x1 = 0.3 | 0.571 ± 0.0122 | –
[1], 298.15 K, x1 = 0.3402 | 0.58 ± 0.0124 | –
[1], 298.15 K, x1 = 0.3855 | 0.57 ± 0.0122 | –
[1], 298.15 K, x1 = 0.4296 | 0.545 ± 0.0117 | –
[1], 298.15 K, x1 = 0.4879 | 0.505 ± 0.0108 | –
[1], 298.15 K, x1 = 0.5522 | 0.455 ± 0.0098 | –
[1], 298.15 K, x1 = 0.6225 | 0.389 ± 0.00837 | –
[1], 298.15 K, x1 = 0.712 | 0.318 ± 0.00693 | –
[1], 298.15 K, x1 = 0.8071 | 0.223 ± 0.00478 | –
[1], 298.15 K, x1 = 0.903 | 0.12 ± 0.00263 | –
[1], 318.15 K, x1 = 0.0162 | 0.0906 ± 0.00263 | –
[1], 318.16 K, x1 = 0.0465 | 0.211 ± 0.00478 | –
[1], 318.17 K, x1 = 0.075 | 0.315 ± 0.00693 | –
[1], 318.18 K, x1 = 0.108 | 0.408 ± 0.00884 | –
[1], 318.19 K, x1 = 0.1427 | 0.495 ± 0.0105 | –
[1], 318.2 K, x1 = 0.178 | 0.566 ± 0.0122 | –
[1], 318.21 K, x1 = 0.2091 | 0.623 ± 0.0134 | –
[1], 318.22 K, x1 = 0.2364 | 0.658 ± 0.0141 | –
[1], 318.23 K, x1 = 0.2498 | 0.683 ± 0.0146 | –
[1], 318.24 K, x1 = 0.2824 | 0.708 ± 0.0151 | –
[1], 318.25 K, x1 = 0.3237 | 0.718 ± 0.0153 | –
[1], 318.26 K, x1 = 0.3722 | 0.717 ± 0.0153 | –
[1], 318.27 K, x1 = 0.4286 | 0.697 ± 0.0148 | –
[1], 318.28 K, x1 = 0.4859 | 0.664 ± 0.0141 | –
[1], 318.29 K, x1 = 0.5506 | 0.618 ± 0.0131 | –
[1], 318.3 K, x1 = 0.6196 | 0.558 ± 0.012 | –
[1], 318.31 K, x1 = 0.6923 | 0.483 ± 0.0103 | –
[1], 318.32 K, x1 = 0.7625 | 0.404 ± 0.0086 | –
[1], 318.33 K, x1 = 0.8348 | 0.315 ± 0.00669 | –
[1], 318.34 K, x1 = 0.9014 | 0.213 ± 0.00454 | –
[1], 318.35 K, x1 = 0.9592 | 0.102 ± 0.00239 | –
[2], 298.15 K, x1 = 0.0523 | – | 852 ± 2.1
[2], 298.15 K, x1 = 0.1023 | – | 901.7 ± 1.9
[2], 298.15 K, x1 = 0.1469 | – | 938.3 ± 1.7
[2], 298.15 K, x1 = 0.2023 | – | 976 ± 1.4
[2], 298.15 K, x1 = 0.307 | – | 1030.5 ± 1.5
[2], 298.15 K, x1 = 0.3801 | – | 1059.5 ± 1.6
[2], 298.15 K, x1 = 0.4445 | – | 1080.8 ± 1.7
[2], 298.15 K, x1 = 0.5069 | – | 1098.6 ± 1.8
[2], 298.15 K, x1 = 0.5553 | – | 1110.8 ± 1.8
[2], 298.15 K, x1 = 0.6045 | – | 1121.8 ± 1.9
[2], 298.15 K, x1 = 0.6639 | – | 1134.2 ± 1.9
[2], 298.15 K, x1 = 0.7127 | – | 1142.8 ± 1.9
[2], 298.15 K, x1 = 0.7447 | – | 1148.4 ± 1.9
[2], 298.15 K, x1 = 0.7964 | – | 1156.8 ± 1.9
[2], 298.15 K, x1 = 0.8673 | – | 1167 ± 1.9
[2], 298.15 K, x1 = 0.9171 | – | 1173.6 ± 1.9
[2], 318.15 K, x1 = 0.0464 | – | 827.9 ± 2.2
[2], 318.15 K, x1 = 0.0965 | – | 881.1 ± 2
[2], 318.15 K, x1 = 0.1445 | – | 921.6 ± 1.7
[2], 318.15 K, x1 = 0.2494 | – | 987.9 ± 1.4
[2], 318.15 K, x1 = 0.2968 | – | 1011 ± 1.3
[2], 318.15 K, x1 = 0.3855 | – | 1046.8 ± 1.5
[2], 318.15 K, x1 = 0.4947 | – | 1080.9 ± 1.7
[2], 318.15 K, x1 = 0.5877 | – | 1103.6 ± 1.7
[2], 318.15 K, x1 = 0.6821 | – | 1123.2 ± 1.8
[2], 318.15 K, x1 = 0.7798 | – | 1139.8 ± 1.8
[2], 318.15 K, x1 = 0.8267 | – | 1146.8 ± 1.8
[2], 318.15 K, x1 = 0.8776 | – | 1153.8 ± 1.8
